For 28 compounds, IC50 results are on record in US20060264419A1 (priority 2003, published 2006).

The experiment addresses 5-HT2A receptors (Rattus norvegicus, UniProt P14842). The experiment is described as follows: in-vitro affinity to 5-HT2A receptors, displacement of [3H]ketanserine (Example A1). Type of experiment: binding. From the text:
The 5-HT2A receptors are exposed both to [^3H]ketanserine (a substance which is known for its affinity to the receptor) and also to the test compound. The decrease in the affinity of [^3H]ketanserine to the receptor is an indication of the affinity of the test substance to the 5-HT2A receptor.
For orientation: In a radioligand displacement assay an active substance lowers the binding of a labelled ligand.

Where [1] appears, read: target not given, description names affinity to 5-HT2A receptors, read-out: IC50.

Like-named read-outs stand apart in the source and are kept apart here.

As usually defined, the IC50 is the concentration at which inhibition is half-maximal.

Chain of 5-HT2A receptors (P14842 whole entry): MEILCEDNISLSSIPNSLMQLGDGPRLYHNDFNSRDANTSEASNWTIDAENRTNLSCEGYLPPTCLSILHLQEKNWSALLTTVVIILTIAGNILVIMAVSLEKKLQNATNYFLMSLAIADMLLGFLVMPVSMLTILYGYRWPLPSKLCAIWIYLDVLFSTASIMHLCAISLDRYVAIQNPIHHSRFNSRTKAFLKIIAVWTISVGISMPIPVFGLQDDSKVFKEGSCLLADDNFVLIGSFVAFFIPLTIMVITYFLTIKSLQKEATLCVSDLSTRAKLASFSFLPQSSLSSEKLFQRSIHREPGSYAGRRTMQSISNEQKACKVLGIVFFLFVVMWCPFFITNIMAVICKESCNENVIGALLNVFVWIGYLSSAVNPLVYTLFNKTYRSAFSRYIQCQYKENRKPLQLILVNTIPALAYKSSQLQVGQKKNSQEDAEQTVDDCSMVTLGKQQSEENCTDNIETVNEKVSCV

Take `Fc1ccc(-c2ccc(-n3ncc(CN4CCOCC4)c3-c3ccccc3F)cc2)cc1` [(61), 4-[1-(4′-Fluorobiphenyl-4-yl)-5-(2-fluorophenyl)-1H-pyrazol-4-ylmethyl]morpholine]: under setting [1], the IC50 was determined as 0.52 µM. As to `OCC(Cc1cnc[nH]1)NCc1cnn(-c2ccc(-c3ccccc3)cc2)c1-c1ccccc1F` (stereo not shown) [Example 1045, 2-{[1-Biphenyl-4-yl-5-(2-fluoro-phenyl)-1H-pyrazol-4-ylmethyl]amino}-3-(3H-imidazol-4-yl)propan-1-ol], the IC50 (read-out: HT2A IC50) worked out at 0.37 µM. The same measure, in the same setting: then `Fc1ccccc1-c1c(CNCCc2c[nH]cn2)cnn1-c1ccc(-c2ccccc2)cc1` [Example 1002, [1-Biphenyl-4-yl-5-(2-fluorophenyl)-1H-pyrazol-4-ylmethyl]-[2-(1H-imidazol-4-yl)-ethyl]amine], with 0.17 µM.

With `Fc1ccccc1-c1cc(CN2CCOCC2)nn1-c1ccc(-c2ccccc2)cc1` [(44), 4-[1-Biphenyl-4-yl-5-(2-fluorophenyl)-1H-pyrazol-3-ylmethyl]-morpholine], under setting [1], the IC50 stood at 1.1 µM. Same read-out and setting: then `Fc1ccccc1-c1c(CN2CC=CCC2)cnn1-c1ccc(-c2ccccc2)cc1` [(38), 1-[1-Biphenyl-4-yl-5-(2-fluorophenyl)-1H-pyrazol-4-ylmethyl]-1,2,3,6-tetrahydropyridine], with 0.17 µM; and `O=C(O)CNCc1cnn(-c2ccc(-c3ccccc3)cc2)c1-c1ccccc1F` [(29), {[1-Biphenyl-4-yl-5-(2-fluorophenyl)-1H-pyrazol-4-ylmethyl]-amino}acetic acid], with 1.7 µM.

With `CN(CCO)Cc1cnn(-c2ccc(-c3ccccc3)cc2)c1-c1ccccc1F` [(92), 2-{[1-Biphenyl-4-yl-5-(2-fluorophenyl)-1H-pyrazol-4-ylmethyl]-methylamino}ethanol], the IC50 under setting [1] amounted to 0.016 µM. Still for that read-out and setting: then `Fc1ccccc1-c1cc(CN2CCCCC2)nn1-c1ccc(-c2ccccc2)cc1` [(43), 1-[1-Biphenyl-4-yl-5-(2-fluorophenyl)-1H-pyrazol-3-ylmethyl]-piperidine], with 0.12 µM; and `OCCNCc1cnn(-c2ccc(-c3ccccc3)cc2)c1-c1ccccc1F` [(77), 2-{[1-Biphenyl-4-yl-5-(2-fluorophenyl)-1H-pyrazol-4-ylmethyl]-amino}ethanol], with 0.0052 µM. On the same count and under the same terms, then `CN1CCN(Cc2cnn(-c3ccc(-c4ccsc4)cc3)c2-c2ccccc2)CC1` [(98), 1-Methyl-4-[5-phenyl-1-(4-thiophen-3-ylphenyl)-1H-pyrazol-4-ylmethyl]piperazine], with 0.031 µM. On to `CN1CCN(Cc2cnn(-c3ccc(-c4cccnc4)cc3)c2-c2ccccc2F)CC1` [Example 1000, 1-[5-(2-Fluorophenyl)-1-(4-pyridin-3-ylphenyl)-1H-pyrazol-4-ylmethyl]-4-methylpiperazine], for which the IC50 (read-out: HT2A IC50) worked out at 0.17 µM. Regarding `CCOC(=O)N1CCC(N(C)Cc2cnn(-c3ccc(-c4ccccc4)cc3)c2-c2ccccc2F)CC1` [(110), Ethyl 4-{[1-biphenyl-4-yl-5-(2-fluorophenyl)-1H-pyrazol-4-ylmethyl]methylamino}piperidine-1-carboxylate], the half-maximal inhibitory concentration (IC50) under setting [1] was determined as 0.17 µM.

Consider `NC(=O)C1CCN(Cc2cnn(-c3ccc(-c4ccccc4)cc3)c2-c2ccccc2F)CC1` [(85), 1-[1-Biphenyl-4-yl-5-(2-fluorophenyl)-1H-pyrazol-4-ylmethyl]-piperidine-4-carboxamide], for which the IC50 under setting [1] worked out at 0.87 µM.

As for `Fc1ccccc1-c1c(C=CCN2CCOCC2)cnn1-c1ccc(-c2ccccc2)cc1` [(46), 4-{3-[1-Biphenyl-4-yl-5-(2-fluorophenyl)-1H-pyrazol-4-yl]allyl}morpholine], the IC50 under setting [1] amounted to 0.017 µM. Still for that read-out and setting: then `CN1CCN(Cc2cnn(-c3ccc(-c4ccccc4F)cc3)c2-c2ccccc2)CC1` [(96), 1-[1-(2′-Fluorobiphenyl-4-yl)-5-phenyl-1H-pyrazol-4-ylmethyl]-4-methylpiperazine], with 0.82 µM.

With `CN1CCN(Cc2cnn(-c3ccc(-c4ccc(F)cc4)nc3)c2-c2ccccc2F)CC1` [(116), 1-{5-(2-Fluorophenyl)-1-[6-(4-fluorophenyl)pyridin-3-yl]-1H-pyrazol-4-ylmethyl}-4-methylpiperazine], under setting [1], the IC50 was 0.12 µM. Still for that read-out and setting: then `Fc1ccccc1-c1c(CN2CC3CC2CO3)cnn1-c1ccc(-c2ccccc2)cc1` (stereo not shown) [(82), 5-[1-Biphenyl-4-yl-5-(2-fluorophenyl)-1H-pyrazol-4-ylmethyl]-2-oxa-5-azabicyclo[2.2.1]heptane], with 0.16 µM. Consider `CN(C)Cc1ccccc1-c1ccc(-n2ncc(CN3CCN(C)CC3)c2-c2ccccc2F)cc1` [Example 970, {4′-[5-(2-Fluorophenyl)-4-(4-methyl-piperazin-1-ylmethyl)pyrazol-1-yl]biphenyl-2-ylmethyl}-dimethylamine], for which the half-maximal inhibitory concentration (IC50) (read-out: HT2A IC50) worked out at 0.081 µM. On to `Fc1ccccc1-c1ccc(-n2ncc(CN3CCOCC3)c2-c2ccccc2F)cn1` [(146), 4-{5-(2-Fluorophenyl)-1-[6-(2-fluorophenyl)pyridin-3-yl]-1H-pyrazol-4-ylmethyl}morpholine], for which the IC50 under setting [1] is 0.6 µM. For `Fc1ccccc1-c1c(CN2CCN(Cc3ccncc3)CC2)cnn1-c1ccc(-c2ccccc2)cc1` [Example 968, 1-[1-Biphenyl-4-yl-5-(2-fluorophenyl)-1H-pyrazol-4-ylmethyl]-4-pyridin-4-ylmethylpiperazine], for the setting “read-out: HT2A IC50”, the IC50 was 0.075 µM.

Turning to `OCc1cnn(-c2ccc(-c3ccccc3)cc2)c1-c1ccccc1F` [(21), [1-Biphenyl-4-yl-5-(2-fluorophenyl)-1H-pyrazol-4-yl]-methanol], under setting [1], the IC50 came to 1.2 µM.

For `O=C1NCCCCC1NCc1cnn(-c2ccc(-c3ccccc3)cc2)c1-c1ccccc1F` (stereo not shown) [(163), 3-{[1-Biphenyl-4-yl-5-(2-fluorophenyl)-1H-pyrazol-4-ylmethyl]-amino}azepan-2-one], under setting [1], the IC50 is 0.51 µM. For `CN1CCN(Cc2cnn(-c3ccc(-c4cc(F)ccc4F)cc3)c2-c2ccco2)CC1` [(69), 1-[1-(2′,5′-Difluorobiphenyl-4-yl)-5-furan-2-yl-1H-pyrazol-4-ylmethyl]-4-methylpiperazine], under setting [1], the half-inhibitory concentration (IC50) amounted to 0.036 µM. For `Fc1ccc(F)c(-c2ccc(-n3ncc(CNCC4CCCO4)c3-c3ccccc3F)cc2)c1` (stereo not shown) [Example 1044, [1-(2′,5′-Difluorobiphenyl-4-yl)-5-(2-fluoro-phenyl)-1H-pyrazol-4-ylmethyl](tetrahydro-furan-2-ylmethyl)amine], for the setting “read-out: HT2A IC50”, the concentration for half-maximal inhibition (IC50) came out at 0.37 µM. `Fc1ccccc1-c1c(C=CCN2CCOCC2)cnn1-c1ccc(-c2ccccc2)cc1` [Example 908, 4-{3-[1-Biphenyl-4-yl-5-(2-fluorophenyl)-1H-pyrazol-4-yl]allyl}morpholine]: the IC50 (read-out: HT2A IC50) was determined as 0.017 µM.

Regarding `CN1CCN(Cc2cc(-c3ccccc3F)n(-c3ccc(-c4ccccc4)cc3)n2)CC1` [(45), 1-[1-Biphenyl-4-yl-5-(2-fluorophenyl)-1H-pyrazol-3-ylmethyl]-4-methylpiperazine], the IC50 under setting [1] is 0.3 µM.

As for `Fc1ccccc1-c1c(CNC2CCNCC2)cnn1-c1ccc(-c2ccccc2)cc1` [Example 1058, [1-Biphenyl-4-yl-5-(2-fluorophenyl)-1H-pyrazol-4-ylmethyl]piperidin-4-ylamine], the IC50 (read-out: HT2A IC50) came to 0.47 µM. Take `Fc1ccccc1-c1c(CCN2CCOCC2)cnn1-c1ccc(-c2ccccc2)cc1` [(42), 4-{2-[1-Biphenyl-4-yl-5-(2-fluorophenyl)-1H-pyrazol-4-yl]ethyl}morpholine]: under setting [1], the IC50 turned out to be 0.012 µM.
